Reference: ChEMBL document CHEMBL1201862, “PubChem BioAssay data set” (2004)
Activity calls are given as the source filed them.

Experiments:
Protein Tat = molecular target: T1, Protein Tat (Human immunodeficiency virus type 1 group M subtype B (isolate HXB2)(HIV-1), UniProt P04608); assay type: functional;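 also: tat binding to TAR RNA read out by fluorescence polarization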
T1 sequence (P04608 whole entry): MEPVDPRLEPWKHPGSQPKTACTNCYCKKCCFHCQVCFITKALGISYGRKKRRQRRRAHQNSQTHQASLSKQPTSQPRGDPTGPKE

[1] = viability loss of HPDE-C7K cells – cell-based, fluorescence, HTS, primary screen (AID 431); assay type: functional; conditions: Homo sapiens
[2] = molecular target: T2, Glutathione-S-transferase (Schistosoma japonicum, UniProt Q26513); assay: GST-antibody interaction or FRET quenching – biochemical, TR-FRET, artefact control for Vif-APOBEC3G degradation inhibitor project, dose response (AID 1117362); assay type: functional
T2 sequence (Q26513 whole entry): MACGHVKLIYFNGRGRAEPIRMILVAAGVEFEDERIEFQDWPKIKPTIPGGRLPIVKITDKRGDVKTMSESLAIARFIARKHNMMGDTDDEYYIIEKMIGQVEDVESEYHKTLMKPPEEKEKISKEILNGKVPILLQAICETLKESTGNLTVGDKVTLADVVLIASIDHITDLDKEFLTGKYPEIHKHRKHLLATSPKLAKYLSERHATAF

[3] = HPDE-C7 pancreatic duct cell viability loss – fluorescence, HTS (AID 430); assay type: functional, cell-based; conditions: Homo sapiens
[4] = viability loss in THP-1 monocytes – THP-1 cells, cytotoxicity control for Vif-APOBEC3G degradation inhibitor project, dose response (AID 1117359); assay type: functional; conditions: THP-1
[5] = molecular target: T3, Orexin/Hypocretin receptor type 1 (Homo sapiens, UniProt O43613); assay: Homogeneous Time Resolved Fluorescence (HTRF)-based cell-based high throughput dose response assay for antagonists of the orexin 1 receptor (OX1R; HCRTR1). [Related pubchem assays (depositor defined):AID434989, AID435008, AID463079, AID485270, AID492963, AID492964, AID492965, AID493232, AID504717, AID504718]; assay type: functional
T3 sequence (O43613 whole entry): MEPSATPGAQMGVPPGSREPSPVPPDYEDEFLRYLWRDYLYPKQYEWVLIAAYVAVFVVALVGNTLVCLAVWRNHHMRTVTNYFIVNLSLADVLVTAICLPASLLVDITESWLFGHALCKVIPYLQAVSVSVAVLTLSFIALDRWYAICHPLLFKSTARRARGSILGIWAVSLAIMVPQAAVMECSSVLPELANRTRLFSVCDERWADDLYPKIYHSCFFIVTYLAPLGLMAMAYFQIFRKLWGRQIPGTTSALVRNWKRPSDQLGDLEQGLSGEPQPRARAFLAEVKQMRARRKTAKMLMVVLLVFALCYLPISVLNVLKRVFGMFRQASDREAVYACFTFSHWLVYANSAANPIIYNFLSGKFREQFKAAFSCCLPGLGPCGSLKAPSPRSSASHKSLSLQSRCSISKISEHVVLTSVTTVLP

[6] = (§1) Counterscreen for antagonists of the orexin 1 receptor (OX1R; HCRTR1): Fluorescence-based cell-based high throughput dose response assay to identify antagonists of the parental CHO cell line. [Related pubchem assays (depositor defined):AID434989, AID435008, AID463079, AID485270, AID492963, AID492964, AID492965, AID493232, AID504699, AID504701]; assay type: functional
[7] = molecular target: T3, Orexin/Hypocretin receptor type 1; assay: Fluorescence-based cell-based high throughput dose response assay for antagonists of the orexin 1 receptor (OX1R; HCRTR1). [Related pubchem assays (depositor defined):AID434989, AID435008, AID463079, AID485270, AID492963, AID492964, AID492965, AID493232, AID504717, AID504718]; assay type: functional
CHO-K1 = assay: as §1, with “Homogeneous time resolved fluorescence (HTRF)-based” for “Fluorescence-based”, “cell-based” for “cell-based high throughput”, “CHO-K1” for “CHO”; assay type: functional; conditions: Cricetulus griseus
Cysteine protease ATG4B = molecular target: T4, Cysteine protease ATG4B (Homo sapiens, UniProt Q9Y4P1); assay type: functional;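 also: Fluorescence-based dose-response confirmation assay measuring inhibition of ATG4B activity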
T4 sequence (Q9Y4P1 whole entry): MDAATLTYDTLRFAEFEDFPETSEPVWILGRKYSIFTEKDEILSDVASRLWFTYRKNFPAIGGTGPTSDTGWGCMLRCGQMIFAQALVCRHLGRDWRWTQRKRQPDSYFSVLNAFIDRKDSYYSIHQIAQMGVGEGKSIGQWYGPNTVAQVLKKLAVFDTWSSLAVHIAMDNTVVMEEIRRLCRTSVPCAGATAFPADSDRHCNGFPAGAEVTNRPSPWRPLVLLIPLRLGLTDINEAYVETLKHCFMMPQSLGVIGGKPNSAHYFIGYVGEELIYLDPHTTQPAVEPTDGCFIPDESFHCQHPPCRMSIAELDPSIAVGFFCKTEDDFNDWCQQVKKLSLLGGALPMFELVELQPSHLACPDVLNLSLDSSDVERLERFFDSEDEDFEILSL

Phospholipase A2 = Phospholipase A2 (Homo sapiens, UniProt P04054); assay type: functional;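 also: confirmatory dose-response counterscreen on phospholipase A2, testing hits that came from an ultra-high-throughput screen for ATG4B inhibitors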
[8] = molecular target: T5, Zinc finger protein mex-5 (Caenorhabditis elegans, UniProt Q9XUB2); assay: potency of MEX-5 RNA-binding blockers – biochemical, C. elegans, fluorescence polarization, dose response (AID 1960)
T5 sequence (Q9XUB2 whole entry): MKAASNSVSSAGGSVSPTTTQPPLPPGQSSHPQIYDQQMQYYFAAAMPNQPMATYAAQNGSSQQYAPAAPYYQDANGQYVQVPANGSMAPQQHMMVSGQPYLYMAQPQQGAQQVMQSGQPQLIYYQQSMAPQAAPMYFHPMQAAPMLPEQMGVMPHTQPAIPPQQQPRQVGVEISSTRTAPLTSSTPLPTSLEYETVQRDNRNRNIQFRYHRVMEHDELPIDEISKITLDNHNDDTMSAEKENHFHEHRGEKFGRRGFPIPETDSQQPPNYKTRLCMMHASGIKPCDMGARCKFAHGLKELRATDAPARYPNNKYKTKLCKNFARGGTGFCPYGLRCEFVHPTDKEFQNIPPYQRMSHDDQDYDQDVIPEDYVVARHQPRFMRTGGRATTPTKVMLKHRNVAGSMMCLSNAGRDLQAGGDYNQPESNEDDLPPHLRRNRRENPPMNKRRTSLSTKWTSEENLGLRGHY

Nonstructural protein 1 = Nonstructural protein 1 (Influenza A virus, UniProt Q194T2); assay type: functional, Influenza A virus (A/California/07/2009(H1N1))
[9] = molecular target: T6, RNA-binding protein pos-1 (Caenorhabditis elegans, UniProt G5EF15); assay: disruptors of C. elegans POS-1 RNA interaction – biochemical, fluorescence polarization, dose response (AID 1964);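 also: purified POS-1 fused to maltose binding protein made in E. coli; potency of compounds blocking POS-1 binding to fluorescent RNA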
T6 sequence (G5EF15 whole entry): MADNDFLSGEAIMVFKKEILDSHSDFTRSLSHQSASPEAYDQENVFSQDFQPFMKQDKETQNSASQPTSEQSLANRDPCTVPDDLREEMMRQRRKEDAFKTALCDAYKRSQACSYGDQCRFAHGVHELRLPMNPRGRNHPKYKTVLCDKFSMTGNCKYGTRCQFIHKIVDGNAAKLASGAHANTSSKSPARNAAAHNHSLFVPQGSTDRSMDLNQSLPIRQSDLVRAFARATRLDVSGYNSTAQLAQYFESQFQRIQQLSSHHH

Streptococcus = assay: GAS UMAA2166 growth inhibition – luminescence, BacTiterGlo, counter-screen for streptokinase expression inhibitor project, dose response (AID 1915); assay type: functional, organism-based;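 also: potency for reduction of bacterial viability or growth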
[10] = system: Streptococcus sp. 'group A'; assay: Streptococcus pyogenes SK(-)GAS viability under kanamycin – luminescence, BacTiterGlo, confirmation, counter-screen for streptokinase expression inhibitor project, dose response (AID 1900); assay type: functional, organism-based
[11] = HEK-293T viability loss after treatment – luminescence, T-cell screen hits, cytotoxicity control for TCR NF-kB inhibitor project, dose response (AID 489026); assay type: functional, cell-based;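 also: cells exposed to compound about 14 hours before the viability readout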
A-375 [12] = assay: proliferation inhibition in MITF-low A375 cells – cell-based, cherry-pick samples, set 2, counter-screen for MITF modulator project, dose response (AID 540335); assay type: functional; conditions: Homo sapiens
A-375 [13] = assay: MITF: Counter assay: A375 proliferation Measured in Cell-Based System Using Plate Reader - 2084-03_Inhibitor_Dose_DryPowder_Activity. [Related pubchem assays (depositor defined):AID488944]; assay type: functional; conditions: Homo sapiens
H9c2 = assay: cells; assay type: functional, cell-based; conditions: Rattus norvegicus, H9c2, Myocardium
[14] = molecular target: T7, Microphthalmia-associated transcription factor (Homo sapiens, UniProt O75030); assay: reducers of TRPM1 reporter luminescence, concentration series – cell-based, SK-MEL-5, cherry-picked, set 3, MITF inhibitor project, dose response (AID 493073); assay type: functional;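 also: SK-MEL-5 melanoma cells with luciferase driven by the MITF target TRPM1 promoter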
T7 sequence (O75030 whole entry): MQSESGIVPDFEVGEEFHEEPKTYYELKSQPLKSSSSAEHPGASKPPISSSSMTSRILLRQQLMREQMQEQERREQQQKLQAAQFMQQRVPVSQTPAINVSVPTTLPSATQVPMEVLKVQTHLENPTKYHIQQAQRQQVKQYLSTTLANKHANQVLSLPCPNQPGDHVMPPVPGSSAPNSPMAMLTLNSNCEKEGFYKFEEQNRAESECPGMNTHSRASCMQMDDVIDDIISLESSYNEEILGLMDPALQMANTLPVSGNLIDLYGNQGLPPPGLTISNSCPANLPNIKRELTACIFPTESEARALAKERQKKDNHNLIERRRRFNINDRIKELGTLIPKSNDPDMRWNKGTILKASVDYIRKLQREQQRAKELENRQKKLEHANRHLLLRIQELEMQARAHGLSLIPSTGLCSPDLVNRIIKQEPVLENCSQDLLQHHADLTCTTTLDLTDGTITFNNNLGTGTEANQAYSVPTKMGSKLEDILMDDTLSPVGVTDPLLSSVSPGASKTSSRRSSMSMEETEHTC

Sequence of Nonstructural protein 1 (Q194T2 whole entry, the tested form may be a part): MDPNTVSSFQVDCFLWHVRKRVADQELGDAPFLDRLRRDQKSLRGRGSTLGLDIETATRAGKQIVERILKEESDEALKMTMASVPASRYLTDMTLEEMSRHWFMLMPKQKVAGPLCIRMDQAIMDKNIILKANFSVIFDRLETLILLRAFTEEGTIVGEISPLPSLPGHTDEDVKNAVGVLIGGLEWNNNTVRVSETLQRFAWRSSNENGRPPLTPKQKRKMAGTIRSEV
Sequence of Phospholipase A2 (P04054 whole entry): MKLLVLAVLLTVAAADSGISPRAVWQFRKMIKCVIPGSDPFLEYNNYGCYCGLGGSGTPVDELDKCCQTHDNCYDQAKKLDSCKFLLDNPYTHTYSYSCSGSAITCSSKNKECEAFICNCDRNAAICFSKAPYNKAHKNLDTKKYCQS

## Nc1ccc(N2CCCCCC2)cc1
Protein Tat
  IC50: 11.8 µM (inconclusive)
[1]
  EC50: 15.4 µM (active)
[2]
  IC50: 44.5 µM (active)
[3]
  EC50: 13.3 µM (active)
[4]
  CC50: 13.3 µM (active)

## O=C1N[C@@H](c2ccccc2)COC(=O)[C@@H](Cc2ccc(F)cc2)C/C=C\C[C@@H]1CC(=O)N(CCO)Cc1ccccc1
[5]
  IC50: 12 µM (inactive)
[6]
  IC50: > 49.7 µM (inactive)
[7]
  IC50: 13.8 µM (inactive)
CHO-K1
  IC50: > 66.2 µM (inactive)

## O=C(CSc1nc2ccccc2c(=O)n1-c1ccc(Cl)cc1)N/N=C/C=C/c1ccccc1[N+](=O)[O-]
Cysteine protease ATG4B
  IC50: 8.92 µM (active)
Phospholipase A2
  IC50: 1.18 µM (active)

## Cc1ncc(CO)c(/C=N/NC(=O)c2cc(Br)ccc2O)c1O
[8]
  EC50: 5.72 µM (active)
Nonstructural protein 1
  IC50: 11.3 µM (active)
[9]
  EC50: > 300 µM (not active)
Streptococcus
  EC50: 1.06 µM (active)
[10]
  EC50: 1.39 µM (active)

## COc1cc(/C=N/NC(=S)NCCN2CCOCC2)cc(OC)c1O
Nonstructural protein 1
  IC50: 70.1 µM (active)

## COc1ccccc1NC(=O)c1cnc(Nc2ccccc2OC)c2ccccc12
[11]
  IC50: > 80 µM (inactive)

## CC(C)C(NC(=O)OCc1ccccc1)C(=O)OCC(=O)N1CCCCC1 (centres undefined)
A-375 [12]
  AC50: > 35 µM (active)
A-375 [13]
  AC50: > 35 µM (active)

## CCOc1ccc(NC(=O)c2cc3c(C)nc4ccccc4c3o2)cc1
H9c2
  IC50: > 79 µM (inactive)
[11]
  IC50: > 80 µM (inactive)

## O=C(Nc1ccc(Cl)c(S(=O)(=O)N2CCOCC2)c1)c1ccc(OCC2CCCO2)cc1 (centres undefined)
[11]
  IC50: 16.9 µM (active)
[14]
  AC50: 3.26 µM (active)
